In ChEMBL document CHEMBL1201862, “PubChem BioAssay data set” (2004):
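The compound was tested at five concentrations on cells cultured in 96-well plates, with a 48-hour exposure period. Abbreviation: GI50, concentration required for 50% inhibition of growth.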 Activity calls are given as the source filed them. Rule as the data show it: active = GI50 up to about 1.1 µM and inactive = higher.

How the values were obtained:
Experiment in all cases: growth of human tumour cells (NCI), 48 h
[1] = system: NCI-H226
[2] = system: HOP-92
[3] = system: SF-268
[4] = system: A498
[5] = system: OVCAR-3
[6] = system: HCT-116
[7] = system: SK-MEL-5
[8] = system: SF-539
[9] = system: HOP-62
[10] = system: HCC 2998
[11] = system: UACC-62
[12] = system: HCT-15
[13] = system: A549
[14] = system: KM12
[15] = system: SR
[16] = system: UO-31

Compound	GI50 [1]	GI50 [2]	GI50 [3]	GI50 [4]	GI50 [5]	GI50 [6]	GI50 [7]	GI50 [8]	GI50 [9]	GI50 [10]	GI50 [11]	GI50 [12] [µM]	GI50 [13]	GI50 [14]	GI50 [15]	GI50 [16]
O=C(Cc1nc2sc3c(c2c(=O)[nH]1)CCCC3)Nc1ccccc1	> 100 µM (inactive)	> 100 µM (inactive)	> 100 µM (inactive)	> 100 µM (inactive)	> 100 µM (inactive)	> 100 µM (inactive)	> 100 µM (inactive)	73.6 µM (inactive)	> 100 µM (inactive)	> 100 µM (inactive)	> 100 µM (inactive)	> 100	> 100 µM (inactive)	> 100 µM (inactive)		
Cn1nc(-c2cccc(-c3nn(C)/c(=N\CCO)s3)n2)s/c1=N/CCO	> 100 µM (inactive)	> 100 µM (inactive)	> 100 µM (inactive)	> 100 µM (inactive)		> 100 µM (inactive)	> 100 µM (inactive)	> 100 µM (inactive)	> 100 µM (inactive)		> 100 µM (inactive)	> 100	> 100 µM (inactive)	> 100 µM (inactive)	> 100 µM (inactive)	
Cc1cc(C)c2c(c1)Nc1ccccc1P2c1ccccc1 (stereo not drawn)		30.9 µM (inactive)	59.6 µM (inactive)		24.6 µM (inactive)				25.8 µM (inactive)	26.6 µM (inactive)	28.9 µM (inactive)	16.9	32.1 µM (inactive)			19.1 µM (inactive)
CC12C3CC4C5CC(C(C53)[C@@H]1NCc1ccccc1)C42 (stereo partly drawn)	> 100 µM (inactive)	55.7 µM (inactive)	> 100 µM (inactive)	> 100 µM (inactive)	54.3 µM (inactive)	> 100 µM (inactive)	31.5 µM (inactive)	> 100 µM (inactive)	> 100 µM (inactive)	15.5 µM (inactive)	> 100 µM (inactive)	78.9	> 100 µM (inactive)	> 100 µM (inactive)	> 100 µM (inactive)	89.7 µM (inactive)
COC(=O)n1c(CBr)c(Br)c2ccccc21	13.1 µM (inactive)	20.1 µM (inactive)	25.6 µM (inactive)		20.3 µM (inactive)	39.4 µM (inactive)	51.5 µM (inactive)	31.3 µM (inactive)	21.2 µM (inactive)	32.6 µM (inactive)	28.1 µM (inactive)	42.2	40.5 µM (inactive)	42.9 µM (inactive)	24.8 µM (inactive)	18.2 µM (inactive)
NCCCCC(=O)c1cccnc1		> 100 µM (inactive)	> 100 µM (inactive)	> 100 µM (inactive)	> 100 µM (inactive)	> 100 µM (inactive)	> 100 µM (inactive)	> 100 µM (inactive)	> 100 µM (inactive)		> 100 µM (inactive)	> 100	> 100 µM (inactive)	> 100 µM (inactive)	> 100 µM (inactive)	> 100 µM (inactive)
C=CCCCn1ccc2ccccc21	> 100 µM (inactive)	7.45 µM (inactive)	> 100 µM (inactive)	> 100 µM (inactive)	> 100 µM (inactive)	> 100 µM (inactive)	> 100 µM (inactive)	> 100 µM (inactive)	> 100 µM (inactive)	> 100 µM (inactive)	75.9 µM (inactive)	> 100	> 100 µM (inactive)	> 100 µM (inactive)	> 100 µM (inactive)	> 100 µM (inactive)
Cc1ccc(NC(=O)/C(=N/NC(=O)CC#N)C2C(=O)N(c3ccccc3)N=C2N)cc1C (stereo not drawn)	> 100 µM (inactive)	> 100 µM (inactive)	> 100 µM (inactive)	> 100 µM (inactive)	> 100 µM (inactive)	> 100 µM (inactive)	> 100 µM (inactive)	> 100 µM (inactive)	> 100 µM (inactive)	> 100 µM (inactive)	> 100 µM (inactive)	> 100	> 100 µM (inactive)	> 100 µM (inactive)	> 100 µM (inactive)	> 100 µM (inactive)
C/C(=N/NS(=O)(=O)c1ccccc1)c1cccc[n+]1[O-]		> 100 µM (inactive)	> 100 µM (inactive)	> 100 µM (inactive)	> 100 µM (inactive)	> 100 µM (inactive)	> 100 µM (inactive)	> 100 µM (inactive)	> 100 µM (inactive)	> 100 µM (inactive)	> 100 µM (inactive)	> 100	> 100 µM (inactive)	> 100 µM (inactive)	> 100 µM (inactive)	> 100 µM (inactive)
COc1cc2cnc3c4cc(OC)c(OC(C)C)cc4ccc3c2cc1OC	> 100 µM (inactive)	> 100 µM (inactive)	> 100 µM (inactive)		> 100 µM (inactive)	> 100 µM (inactive)	> 100 µM (inactive)	> 100 µM (inactive)	> 100 µM (inactive)	> 100 µM (inactive)	> 100 µM (inactive)	> 100	> 100 µM (inactive)	> 100 µM (inactive)	> 100 µM (inactive)	> 100 µM (inactive)
CCOC(=O)CC[C@@H](NC(=O)c1ccc(N[C@@H]2c3cc4c(cc3C(c3cc(OC)c(O)c(OC)c3)C3C(=O)OC[C@@H]32)OCO4)cc1)C(=O)OCC (stereo partly drawn)		0.0205 µM (active)	0.0208 µM (active)	0.0129 µM (active)	0.143 µM (active)		0.0247 µM (active)	0.0157 µM (active)	0.0127 µM (active)	0.136 µM (active)	0.0167 µM (active)	0.0637	0.0222 µM (active)	0.0322 µM (active)	> 10 µM (inactive)	0.0627 µM (active)
COC1=NN2C(OC)(c3ccccc3)c3c(-c4ccccc4)sc(-c4ccccc4)c3C2(c2ccccc2)S1 (stereo not drawn)		> 100 µM (inactive)	> 100 µM (inactive)	> 100 µM (inactive)	> 10 µM (inactive)	> 100 µM (inactive)		> 100 µM (inactive)	> 10 µM (inactive)	> 100 µM (inactive)	> 100 µM (inactive)	> 100	> 100 µM (inactive)	> 100 µM (inactive)	> 100 µM (inactive)	> 100 µM (inactive)
CC1O[C@@H]2CCCCC(=O)[C@]2(C)[C@H]1C (stereo partly drawn)	> 100 µM (inactive)	> 100 µM (inactive)			> 100 µM (inactive)	> 100 µM (inactive)	> 100 µM (inactive)		> 100 µM (inactive)	> 100 µM (inactive)	> 100 µM (inactive)	> 100	> 100 µM (inactive)	> 100 µM (inactive)		> 100 µM (inactive)
C[n+]1ccc(-c2cc[n+](C)cc2)cc1 [PARAQUAT DICHLORIDE]	8.43 µM (inactive)	> 44.5 µM (inactive)	> 22.5 µM (inactive)	> 32.6 µM (inactive)	14 µM (inactive)		11.5 µM (inactive)	20.7 µM (inactive)	14.7 µM (inactive)	14.5 µM (inactive)	7.19 µM (inactive)	> 32.4	12.1 µM (inactive)	5.83 µM (inactive)	11.6 µM (inactive)	> 100 µM (inactive)
